# Test results published in patent US20070098735A1, “Methods for the Elimination of Pathogens and Other Particulate Agents” (priority 2005, published 2007).
# Legend:
# [1] = system: Murine macrophage lines (RAW264.7, J774.A1 or RAW264NO-); experiment: Phagocytosis assay in vitro (uptake of Alexa Fluor 488-labeled particles); assay type: cell-based
# How it was run: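 Macrophages in serum-free EMEM took up Alexa Fluor 488 beads, yeast or E. coli (40 particles/cell) for 60 min at 37 °C with or without HSPs, LPS or control proteins. Trypan blue (0.8 mg/ml, 60 s) quenched external fluorescence, and intracellular signal was read as relative mean fluorescence intensity. Data are from 3 experiments, 3 wells/group, compared with medium alone by Student's t test.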
# [2] = system: macrophages
substance,measurement,setting,value
"HSP70: heat shock protein purified from murine livers, prepared as a complex with endogenous peptide",rank as stimulator of phagocytosis among the agents tested,[1]; HSP70 100 μg/ml vs TLR7-ligands 1 mg/ml,most potent stimulator of phagocytosis
same,uptake of microbial or non-microbial materials as compared to control proteins or buffer,"[1]; HSPs 100 μg/ml, P<0.01 vs medium alone",increase in uptake
same,increase in phagocytosis,"[1]; RAW264.7, labeled S. cerevisiae, HSP70 100 μg/ml, 60 minutes at 37° C.",4-6 times the basal rate
same,uptake of yeast by macrophages pre-treated with HSP and washed,[1]; compared with HSP and yeast administered simultaneously,enhanced the uptake of yeast to the same extent
same,doses unable to stimulate uptake,[1]; dose range 10-100 μg/ml,less than 20 μg/ml
same,quantity of phagocytosis at higher doses,[1]; doses up to 200 μg/ml,did not result in any further increase in the quantity of phagocytosis
same,dose at which the peak effect occurred,[1]; plateau through 100 μg/ml,40 µg/mL
same,ability to enhance phagocytosis,"[1]; serum-free conditions, 1 hour, HSP70 100 μg/ml, LPS 25 ng-1 μg/ml, heating 100° C. for 20 minutes",able to enhance phagocytosis equally whether in the presence or absence of serum
same,time for antigen uptake to reach a plateau,[1]; time-titration 10-90 minutes,≤ 45 min
same,cytotoxicity of HSP-treatment (trypan blue exclusion),[2],not cytotoxic
